Results on six compounds are retold here after publication PMC1586004, “Dibenzazecine compounds with a novel dopamine/5HT2A receptor profile and 3D-QSAR analysis” (BMC Pharmacology, 2006).

Marks after values point to notes of the source that are not given here.

Test [1] deals with T1, hD1 receptor (Homo sapiens, UniProt P21728).
T1 construct: expressed in transfected cells
The test is described as follows: Radioligand competition binding at hD1 receptors (cell membranes). The note with it: for higher affinities for D1-like than for D2-like receptors: binding (table 2). (In general: In a radioligand displacement assay an active substance lowers the binding of a labelled ligand.)

Test [2] has as its target T2, hD2L receptor (Homo sapiens, UniProt P14416).
T2 construct: expressed in transfected cells
The test is described as follows: Radioligand competition binding at hD2L receptors (cell membranes). The note with it: read-out: pKi hD2L (converted).

For test [3], the target named is T3, hD3 receptor (Homo sapiens, UniProt P35462).
T3 construct: expressed in transfected cells
The experiment in a line: Radioligand competition binding at hD3 receptors (cell membranes). The following applies: read-out: pKi hD3 (converted).

The target in test [4] is T4, hD4.4 receptor (Homo sapiens, UniProt P21917).
T4 sequence (P21917 1-419): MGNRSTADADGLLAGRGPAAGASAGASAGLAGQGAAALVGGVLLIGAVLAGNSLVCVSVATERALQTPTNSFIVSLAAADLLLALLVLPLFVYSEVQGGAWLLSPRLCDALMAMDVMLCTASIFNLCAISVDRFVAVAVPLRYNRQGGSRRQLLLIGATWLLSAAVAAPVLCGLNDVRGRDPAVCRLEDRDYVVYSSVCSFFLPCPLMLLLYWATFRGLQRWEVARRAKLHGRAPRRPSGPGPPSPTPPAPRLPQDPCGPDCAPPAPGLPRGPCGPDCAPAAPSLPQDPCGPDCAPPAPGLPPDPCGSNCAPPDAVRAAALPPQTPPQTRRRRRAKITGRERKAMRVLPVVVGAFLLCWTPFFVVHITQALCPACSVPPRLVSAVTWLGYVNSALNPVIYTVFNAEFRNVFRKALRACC
The experiment in a line: Radioligand competition binding at hD4.4 receptors (cell membranes). The following applies: read-out: pKi hD4.4 (converted).

Test [5] concerns the target T5, hD5 receptor (Homo sapiens, UniProt P21918).
T5 construct: expressed in transfected cells
The test is described as follows: Radioligand competition binding at hD5 receptors (cell membranes). The note with it: read-out: pKi hD5 (converted).

Test [6] concerns the target h5HT2A receptor (Homo sapiens, UniProt P28223). The test is described as follows: Radioligand competition binding at h5HT2A receptors (cell membranes). The note with it: read-out: pKi h5HT2A (converted).
The target of test [7] is T1, hD1 receptor. The test is described as follows: Intracellular [cAMP], CRE-luciferase reporter gene assay, HEK293-hD1 cells. It counts as cell-based. (Reporter assays use an easily measured gene product as a stand-in for the process of interest.)
Test [8] addresses T2, hD2L receptor. The test is described as follows: Intracellular [cAMP], CRE-luciferase reporter gene assay, HEK293-hD2L cells. The class given is cell-based. The note with it: read-out: pKi app [cAMP]i hD2L (converted).
Test [9] deals with T1, hD1 receptor. The test is described as follows: Intracellular [Ca2+] fluorescence assay, HEK293-hD1 cells. It counts as cell-based.
For test [10], the target named is T2, hD2L receptor. The experiment in a line: Intracellular [Ca2+] fluorescence assay, HEK293-hD2L cells. The class given is cell-based.
The target of test [11] is T1, hD1 receptor. The test is described as follows: [35S]-GTPγS binding in HEK293-hD1 cell membranes. It counts as biochemical.
Protocol: (§1) For [^35S]-GTPγS-binding, cell pellets were resuspended in 10 mM Tris-HCl/1 mM EDTA, pH 7.4, homogenized in a glass-teflon homogenizer and centrifuged for 15 min (40,000 × g, 4°C). Supernatant was discarded, and pellet was washed twice with ice-cold Tris-HCl/EDTA buffer and finally resuspended in 50 mM Tris-HCl, 4 mM MgCl2, 1 mM EDTA, 250 mM sucrose, pH 7.4, and stored at -80°C. The protein content was determined according to the Bradford method [30] with gamma immunoglobulin as standard.
The target in test [12] is T2, hD2L receptor. The experiment in a line: [35S]-GTPγS binding in HEK293-hD2L cell membranes. It counts as biochemical. The following applies: read-out: pKi app [35S]-GTPγS binding hD2L (converted). (In general: GTPγS resists hydrolysis and so accumulates on activated G proteins.)
Protocol: as §1
For test [13], the target named is T1, hD1 receptor. The note with it: radioligand binding literature data; cited from earlier work.
Test [14] has as its target T2, hD2L receptor. The note with it: radioligand binding literature data; cited from earlier work.
[15] abbreviates: Schild and Clark analyses, Ca2+ assay.

Sequence of h5HT2A receptor (P28223 whole entry): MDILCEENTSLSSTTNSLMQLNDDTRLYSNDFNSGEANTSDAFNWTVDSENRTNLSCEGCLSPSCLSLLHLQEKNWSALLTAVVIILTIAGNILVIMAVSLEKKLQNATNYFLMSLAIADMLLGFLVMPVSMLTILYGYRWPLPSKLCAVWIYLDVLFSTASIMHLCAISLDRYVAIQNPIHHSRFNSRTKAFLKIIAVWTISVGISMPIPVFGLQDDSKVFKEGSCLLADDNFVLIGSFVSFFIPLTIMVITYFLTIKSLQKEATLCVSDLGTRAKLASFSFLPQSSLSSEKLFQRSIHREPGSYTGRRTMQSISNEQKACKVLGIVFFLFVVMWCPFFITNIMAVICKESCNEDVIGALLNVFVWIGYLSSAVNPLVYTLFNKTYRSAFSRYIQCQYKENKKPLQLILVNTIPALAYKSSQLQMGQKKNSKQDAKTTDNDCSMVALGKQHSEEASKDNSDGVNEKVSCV
T2 sequence (P14416 whole entry): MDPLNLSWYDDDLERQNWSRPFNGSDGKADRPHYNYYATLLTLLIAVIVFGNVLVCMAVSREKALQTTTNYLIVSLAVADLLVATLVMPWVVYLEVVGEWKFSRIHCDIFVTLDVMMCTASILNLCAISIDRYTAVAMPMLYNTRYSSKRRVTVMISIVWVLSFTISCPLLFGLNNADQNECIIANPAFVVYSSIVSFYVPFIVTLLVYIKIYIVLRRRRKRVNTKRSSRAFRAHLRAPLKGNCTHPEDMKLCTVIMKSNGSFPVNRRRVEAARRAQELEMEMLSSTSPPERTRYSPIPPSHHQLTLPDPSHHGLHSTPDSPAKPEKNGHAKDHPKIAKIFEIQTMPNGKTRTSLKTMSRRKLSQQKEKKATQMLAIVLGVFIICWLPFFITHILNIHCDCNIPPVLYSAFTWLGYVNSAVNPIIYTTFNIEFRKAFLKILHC
T1 sequence (P21728 whole entry): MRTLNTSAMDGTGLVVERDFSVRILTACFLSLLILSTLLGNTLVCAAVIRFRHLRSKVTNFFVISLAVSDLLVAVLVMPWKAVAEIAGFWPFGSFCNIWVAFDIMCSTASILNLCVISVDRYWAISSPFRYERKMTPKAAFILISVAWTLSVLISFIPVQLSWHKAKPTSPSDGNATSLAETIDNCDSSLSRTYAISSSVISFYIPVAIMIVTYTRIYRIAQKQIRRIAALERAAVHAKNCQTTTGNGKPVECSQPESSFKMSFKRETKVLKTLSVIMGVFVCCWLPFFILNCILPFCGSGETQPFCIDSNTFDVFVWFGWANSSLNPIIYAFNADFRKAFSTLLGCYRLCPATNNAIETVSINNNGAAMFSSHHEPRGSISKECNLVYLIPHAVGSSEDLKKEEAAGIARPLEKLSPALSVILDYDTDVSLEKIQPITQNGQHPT
T3 sequence (P35462 whole entry): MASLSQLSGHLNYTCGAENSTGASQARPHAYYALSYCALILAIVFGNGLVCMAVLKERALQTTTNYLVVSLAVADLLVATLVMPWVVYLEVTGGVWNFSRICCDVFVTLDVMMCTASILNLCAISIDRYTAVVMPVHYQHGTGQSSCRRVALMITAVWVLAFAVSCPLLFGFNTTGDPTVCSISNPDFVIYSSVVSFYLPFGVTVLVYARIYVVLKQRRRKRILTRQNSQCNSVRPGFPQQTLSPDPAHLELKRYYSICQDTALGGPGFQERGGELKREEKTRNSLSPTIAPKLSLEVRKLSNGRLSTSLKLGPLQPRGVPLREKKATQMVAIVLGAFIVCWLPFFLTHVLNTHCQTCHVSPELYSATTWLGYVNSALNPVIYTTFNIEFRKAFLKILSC
T5 sequence (P21918 whole entry): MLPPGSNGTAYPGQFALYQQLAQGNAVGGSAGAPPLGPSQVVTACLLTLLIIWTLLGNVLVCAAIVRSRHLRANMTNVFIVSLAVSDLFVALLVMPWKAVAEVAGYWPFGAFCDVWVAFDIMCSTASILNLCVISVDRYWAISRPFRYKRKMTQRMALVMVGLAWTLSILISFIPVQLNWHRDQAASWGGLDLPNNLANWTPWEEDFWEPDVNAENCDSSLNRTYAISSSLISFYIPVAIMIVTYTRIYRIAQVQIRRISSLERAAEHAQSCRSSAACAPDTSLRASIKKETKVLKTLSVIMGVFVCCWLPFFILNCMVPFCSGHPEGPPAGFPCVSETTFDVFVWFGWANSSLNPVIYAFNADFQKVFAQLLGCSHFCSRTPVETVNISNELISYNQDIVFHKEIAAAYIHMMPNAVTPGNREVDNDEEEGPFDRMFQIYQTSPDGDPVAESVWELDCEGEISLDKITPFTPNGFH

For `BrCCN1CCc2ccccc2Cc2[nH]c3ccccc3c2CC1` [AHAD11], the Ki in test [1] (read-out: pKi hD1 (converted)) was 1510 nM.

As for `CN1CCc2ccccc2Cc2[nH]c3ccccc3c2CC1` [LE300], the Ki-D1/Ki-D2 in test [1] is 0.16. Moreover, in [1], the “fold higher Ki using Krebs-HEPES instead of TRIS-HCl buffer, hD1” value is on record as ~ 4 fold. In addition, the Ki was 10 ± 1.15 nM in test [1] (0.2 nM [3H]SCH23390, Krebs-HEPES buffer pH 7.4, n = 3, read-out: Ki (Krebs-HEPES) hD1); 2.36 ± 0.13 nM in test [1] (0.2 nM [3H]SCH23390, TRIS-HCl pH 7.4, n = 3, read-out: Ki (TRIS-HCl) hD1); 10.5 nM in test [1] (heterologous competition, 0.2 nM [3H]SCH23390, Krebs-HEPES buffer pH 7.4, mean ± SEM, n ≥ 3, read-out: pKi hD1 (converted)); 64.6 nM in [2]; 331 nM in test [3]; 347 nM in test [4]. Besides, the Ki is 10.2 nM in test [5]; 0.224 nM in test [6]; 28.2 nM in test [7] (read-out: pKi app [cAMP]i hD1 (converted)); 1.86 nM in test [8]; 11.7 nM in test [10] (read-out: pKi app [Ca2+]i hD2L (converted)); 17.8 nM in test [11] (read-out: pKi app [35S]-GTPγS binding hD1 (converted)). Moreover, the Ki in [12] was 7.24 nM. Besides, the IC50 (commonly the midpoint of a concentration-inhibition curve) stood at 123 ± 31.1 nM in [7] (read-out: IC50 [cAMP] hD1 (antagonist)) and 718 ± 168 nM in [9] (read-out: IC50 [Ca2+] hD1 (antagonist)). In addition, in test [9], the “pKi app [Ca2+]i hD1” value was determined as 7.22 ± 0.15.

Consider `CN1CCc2ccccc2Cc2cc(O)c(O)cc2CC1` [LE403], for which the “higher affinities for D1-like than for D2-like receptors” value in [1] is “up to 33 fold”. Moreover, the figures for the Ki in test [3] and in [6] were 724 nM and 3.98 nM, respectively.

`Oc1cc2c(cc1O)[C@H]1c3ccccc3CN[C@@H]1CC2` (racemic) [Dihydrexidine, reference compound]: the “increase in [35S]-GTPγS binding compared with SKF38393” value in [11] (membrane preparations from HEK293-hD1 cells, 1 μM GDP) was “significantly higher increase”.

For the compound `CN(C)CCC=C1c2ccccc2C=Nc2ccc(Cl)cc21` [RMI-81582, 2-chloro-11-(3-dimethylaminopropylidene)morphanthridine], the “Ki-D1/Ki-D2 (calculated from literature)” value in test [13] was 0.05^a). Besides, the “Ki-D2/Ki-5HT2A (calculated from literature)” value in test [14] is 31.6^a).

For `CN1CCc2ccccc2Cc2ccc(O)cc2CC1` [LE404], the “higher affinities for D1-like than for D2-like receptors” value in test [1] was “up to 33 fold”. The Ki in test [6] is 1.62 nM. In addition, in test [9] (setting [15]), the “nature of antagonism at D1 receptors” value is listed as “competitive antagonistic behaviour”. In addition, the “D1 preference over D2L in Ca2+ studies” value in test [9] (apparent functional Ki, Ca2+ (table 5)) is on record as 3 fold. Besides, the “nature of antagonism at D2L receptors” value in test [10] (setting [15]) is “competitive antagonistic behaviour”.
